# Measurements taken from patent US20090053338A1, “Method for the preparation of phytoprogestogenic extracts from rhizoma ligusticum chuanxiong and uses thereof” (priority 2003, published 2009).
# How the values were obtained:
# male Sprague-Dawley rats [1] = conditions: subcutaneous; MPA 10 mg
# Excerpt: Each data point is the Mean±SEM of samples obtained from 6 different rats. Bars indicate progestogenic activity of original MPA and L.C. extract in-vitro. Progestogenic activity is expressed as fold increase compared to cells exposed to vehicle only.
# male Sprague-Dawley rats [2] = test system: male Sprague-Dawley rats
# Method: Sprague-Dawley rats were fasted overnight. Two mls of L.C. (2 g), MPA (10 mg) and vehicle (60% Ethanol) were orally fed to male rats using gavage tubes. Serum samples were collected from the tail vein at indicated time points, before and after L.C. administration. Bioactive progestogens were extracted from serum and tested for progestogenic activity using our receptor-based bioassay. Each data point is the Mean±SEM of samples obtained from 6 different rats. Bars indicate progestogenic activity of original MPA and L.C. extract in-vitro. Progestogenic activity is expressed as fold increase compared to cells exposed to vehicle only.
# To determine the pharmacokinetics and bioequivalence of LC, we measured the progestogenic effect of rat serum sampled at defined time points after oral doses of LC (2 g/2 ml), MPA (10 mg/2 ml), and vehicle only (2 ml 60% ethanol). Serum samples were extracted and progesterone effect measured as in Example 12.
# [3] = test system: subjects with transient ischemic attack; conditions: cited from earlier work
# [4] = molecular target: T1, human progesterone receptor (PR-B) (Homo sapiens, UniProt P06401); assay: cell-based progesterone reporter gene assay (PR-B + PRE2-TATA-LUC luciferase) in HeLa cells; conditions: peak activity at 10 μM
# T1 construct: DNA encoding the full length human progesterone receptor (PR-B); expressed in transfected cells; host or cells: HeLa cells
# T1 sequence (P06401 1-933): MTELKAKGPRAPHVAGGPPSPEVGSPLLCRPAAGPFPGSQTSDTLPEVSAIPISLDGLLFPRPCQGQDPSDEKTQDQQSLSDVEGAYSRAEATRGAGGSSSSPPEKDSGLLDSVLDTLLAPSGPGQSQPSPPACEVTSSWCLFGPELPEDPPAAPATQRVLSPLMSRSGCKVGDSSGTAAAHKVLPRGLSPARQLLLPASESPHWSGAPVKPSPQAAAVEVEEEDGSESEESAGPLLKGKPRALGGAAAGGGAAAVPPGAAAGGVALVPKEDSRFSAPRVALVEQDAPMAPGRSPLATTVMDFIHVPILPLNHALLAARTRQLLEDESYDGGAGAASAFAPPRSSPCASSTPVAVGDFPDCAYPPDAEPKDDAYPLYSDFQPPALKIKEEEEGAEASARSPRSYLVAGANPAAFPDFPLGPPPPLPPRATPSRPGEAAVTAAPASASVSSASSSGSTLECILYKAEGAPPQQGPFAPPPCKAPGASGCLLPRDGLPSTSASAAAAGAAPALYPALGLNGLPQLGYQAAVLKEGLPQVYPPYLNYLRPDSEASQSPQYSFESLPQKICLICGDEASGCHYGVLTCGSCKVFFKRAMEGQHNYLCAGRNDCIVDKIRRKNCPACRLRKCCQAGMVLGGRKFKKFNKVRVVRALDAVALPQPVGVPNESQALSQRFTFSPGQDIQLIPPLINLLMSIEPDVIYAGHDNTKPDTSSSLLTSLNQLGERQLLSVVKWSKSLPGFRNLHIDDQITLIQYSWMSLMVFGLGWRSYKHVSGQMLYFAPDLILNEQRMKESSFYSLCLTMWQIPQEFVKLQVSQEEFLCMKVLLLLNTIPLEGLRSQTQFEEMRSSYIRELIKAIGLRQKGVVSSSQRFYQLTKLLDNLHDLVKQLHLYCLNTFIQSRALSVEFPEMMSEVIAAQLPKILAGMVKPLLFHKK
# Excerpt: In the progestogen receptor assay of the invention, HeLa cells grown in 24-well microtiter plates were transiently co-transfected with two plasmids using lipofectamine. The first plasmid consisted of DNA encoding the full length human progesterone receptor (PR-B), and the second a progesterone reporter gene (PRE2-TATA-LUC) comprising a luciferase reporter gene driven by two copies of the progesterone response element from the aminotransferase gene. […] Replicate wells were exposed to vehicle only (ethanol) and used as negative controls. After the period of incubation, cells were rinsed with PBS buffer, lysis buffer (Promega Corp) was added, and cell lysates collected for measurement of luciferase activity. Progestogenic activity of the ligands was expressed as fold-increase in luciferase activity compared with control cells exposed to vehicle only. All data points were in triplicate. […] To begin the search for phyto-progestogens in Traditional Chinese herbal medicines, The Pharmacopoeia of the People's Republic of China (1997) was consulted and 13 herbs reported to have “uterotonic activity” were selected for screening. […] The herbal residues were re-extracted a second time with the same solvent for 2-3 hours. […] Dried extracts were weighed and re-suspended in 100% ethanol or methanol to a concentration 50 mg/ml.
# [5] = test system: patients with acute cerebral infarction; conditions: cited from earlier work
compound,measurement,setting,value
"CC(=O)O[C@]1(C(C)=O)CC[C@H]2[C@@H]3C[C@H](C)C4=CC(=O)CC[C@]4(C)[C@H]3CC[C@@]21C [MPA, 6α-methyl-17α-hydroxy-progesterone acetate]",peak progestogenic activity versus serum from rats administered vehicle only,male Sprague-Dawley rats [1],about 5 fold
same,maintenance of peak / high levels of progestogenic effect,"male Sprague-Dawley rats [2]; male, Sprague-Dawley, rat, in vivo, po",maintained throughout the 24 hour of sampling
same,peak progesterone activity in words,male Sprague-Dawley rats [2]; oral,comparable to that observed with saturating doses of progesterone in-vitro
same,serum activity versus baseline of rats administered vehicle only,"male Sprague-Dawley rats [2]; oral, MPA 10 mg/2 ml",about 5 fold
CC(=O)Oc1ccccc1C(=O)O [aspirin],total effective rate,[3],61.7%
CC(=O)O[C@]1(C(C)=O)CC[C@H]2[C@@H]3C=C(C)C4=CC(=O)CC[C@]4(C)[C@H]3CC[C@@]21C [megesterol acetate],increase in hormonal activity over controls exposed to vehicle only at peak activity,[4],300 fold
CC(=O)[C@H]1CC[C@H]2[C@@H]3CCC4=CC(=O)CC[C@]4(C)[C@H]3CC[C@]12C [progesterone],increase in hormonal activity over controls exposed to vehicle only at peak activity,[4],300 fold
dextran 40,total therapeutic efficacy rate,[5],62.8%
